According to patent US20080039321A1, “Plant Growth Regulation” (priority 2004, published 2008):

System: wheat (Triticum aestivum, variety "TRISO")
Test: Root growth assay, seed treatment, wheat
Assay type: in vivo
Conditions: Root Growth of 100 is set as the standard, 16 (±2) days post treatment
Description: Plant roots are a highly proliferative tissue that allows an easy accessible, cheap and short term screening method for plant growth regulators. The results obtained can easily be transferred to the overall effects on a plant of plant growth regulators identified by such a system. By using this root assay one is enabled to determine the effect of a seed treatment to root growth and/or germination and/or changes in habitat of germinated plants in order to identify the possible use as a yield enhancer. Two seeds of wheat (Triticum aestivum, variety “TRISO”) or 1 seed of maize (Zea mays, variety “LORENZO”) per hole in a plastic tray which contains an architecture of 8×13 holes were placed on compost soil covered with sand. These seeds were treated with 100 μl/hole, which creates an application volume of approx. 1200 l/ha, of a compound solution at active ingredient rates equivalent to 100, 10 and 1 g a.i./ha of each compound using an robotic application system (Lizzy Spray Robotics). Six replicates in a row of each compound and concentration were done. The outer rim of the above defined plastic tray was untreated to avoid false negative effects and the middle row (No. 7) was used as untreated control. The treated seeds were allowed to dry for approx. 4 hours and subsequently covered with sand and watered. The trays were stored in climate chambers with 14 hours lighting at a temperature of 24° C. (±2) at daytime and 16° C. (±2) at night and relative humidity (rH) of 60% and daily watered. Assessments were done 16 (±2) days post treatment by counting the germinated plants and assessing the phytotoxicity symptoms and percentage. In addition, the roots were washed out and the shoots were cut directly above the seed and the wet roots were placed on dry paper towels for approximately 30 minutes and weighted afterwards. This procedure provides a similar grade of moisture to the roots so that a comparison of the weights is possible. […]

## Nc1nc(OCC23CC4CC(CC(C4)C2)C3)c2nc[nH]c2n1 [Compound 1.1, O6-Adamantylmethyl-9H-purin-2-ylamine]
1 g a.i./ha
  Root Growth: 84
10 g a.i./ha
  Root Growth: 76
100 g a.i./ha
  Root Growth: 141
